Laboratory results published in patent US5236903A, “Polypeptide comprising repeated cell-adhesive core sequences” (Azuma; Ichiro, priority 1988, dated 1993).
Where two headings read alike, the source gives them in different places. Ends that are not written are not given here.

Tests used:
B16-BL6 melanoma cells [1] = test: Experimental metastasis to lung induced by intravenously injecting B16-BL6 melanoma cells; type: in vivo, C57BL/6 mice; conditions: for No. of instances of metastasis to lung mean ± SD: B16-BL6; for Antimetastatic effect on metastasis to lungs (in words): 500 μg mixed with cells, i.v.; for Antimetastatic effect compared with the control group (in words): 1,000 μg mixed with cells
[2] = test system: Lewis lung cancer cells (3 LL); test: Experimental metastasis to lung induced by injecting Lewis lung cancer cells (3LL); type: in vivo, C57BL/6 mice; conditions: for No. of instances of metastasis to lung mean ± SD: 3LL
Experimental: Namely, portions of 2, 20 and 100 μg of the above compound were each mixed with 3×10^4 Lewis lung cancer cells (3 LL) and administered to a group of C57BL/6 mice in the same manner as the one described in the above (b). Thus the antimetastatic effect of this compound was examined.

[3] = test system: erythrocytes, spleen and thymus cells
[4] = test system: mouse B16-BL6 melanoma cells; test: Adhesion of B16-BL6 melanoma cells to substrate coated with polypeptide or fibronectin; type: cell-based; conditions: 37° C., 20 minutes; for Adhesiveness adhered cell No./substrate (SD): wells coated with 20 μg/ml polypeptide, 5 μg/ml fibronectin or 1% BSA, 2×10^4 cells
Text: The adhesiveness to target cells of the compound of the present invention was examined in accordance with a method reported by Saiki et al. […] Namely, a polypeptide of the present invention having a structure of ([…] and a molecular weight of approximately 5,000 prepared in the following Synthetic Example 1 and a comparative polypeptide, ([…], carrying a random sequence of the corresponding amino acids Arg, Gly and Asp and having a molecular weight of approximately 5,000 prepared in the following Synthetic Example 3 were employed. The adhesiveness of each compound was examined by using mouse B16-Bl6 melanoma cells as the target. First, microculture wells were preliminarily coated with 20 μg/ml of the polypeptide to be examined or 5 μg/ml of mouse fibronectin (obtained from Seikagaku Kogyo, Japan) which was used as a positive control. Next 0.05 ml/well of B16-BL6 melamona cells (2×10^4) labeled with a radioactive iodide [^125 I]IUdR was added thereto and the cells were cultured at 37° C. for 20 minutes. […] Subsequently the cells were collected and suspended in a serum-free MEM medium. The cell suspension thus obtained was used in the above examination. The unadsorbed cells in the well were washed away with PBS 4 times. Then the cells adsorbed by the well were dissolved in 0.1 ml of 0.1N NaOH. The number of adsorbed cells was determined by measuring the radioactivity of the dissolved cells.

[5] = test system: adhesion of B16-BL6 melanoma cells to fibronectin; test: Inhibition of B16-BL6 cell adhesion to fibronectin-coated substrate by peptides present during culture; type: cell-based, mouse; conditions: for Adhesiveness adhered cell No./substrate (SD) / Percentage in parentheses (inhibition of adhesion to fibronectin): fibronectin coating
Experimental: First, microculture wells were preliminarily coated with 20 μg/ml of the polypeptide to be examined or 5 μg/ml of mouse fibronectin (obtained from Seikagaku Kogyo, Japan) which was used as a positive control. Next 0.05 ml/well of B16-BL6 melamona cells (2×10^4) labeled with a radioactive iodide [^125 I]IUdR was added thereto and the cells were cultured at 37° C. for 20 minutes. The number of cells thus adsorbed by the culture wells was determined by measuring the radioactivity. 1% bovine serum albumin (BSA) was employed as a negative control. The B16-BL6 melanoma cells were labeled by culturing the cells to be labeled at the logarithmic growth phase for 24 hours in an MEM medium containing 5% of FBS and 0.3 μCi/ml of [^125 I]IUdR (200 mCi/mmol; obtained from New England Nuclear, Boston, Mass., USA).
The labeled cells were washed with physiological saline solution twice and suspended in 0.02% EDTA for 1 minute. Subsequently the cells were collected and suspended in a serum-free MEM medium. The cell suspension thus obtained was used in the above examination. The unadsorbed cells in the well were washed away with PBS 4 times. Then the cells adsorbed by the well were dissolved in 0.1 ml of 0.1N NaOH. The number of adsorbed cells was determined by measuring the radioactivity of the dissolved cells.

B16-BL6 melanoma cells [6] = conditions: for Metastasis of the cancer to the lungs (in words): 100 μg on 1st or 7th day single dose or 50 μg on 7th, 10th, 13th, 16th days, random polypeptide 100 μg on 7th day
Text: Furthermore, the antimetastatic effect of the compound of the present invention on a spontaneous metastasis model was examined. Namely, B16-BL6 cells were transplanted into the foot pads of C57BL/mice (each group having five animals). […] The transplanted cancer was removed on the 21st day and the mouse was anatomized 2 weeks later to examine the metastasis of the cancer into the lungs.

[7] = test system: platelet aggregation induced by B16-BL6 melanoma cells; conditions: 100 μg/ml added to heparinized PRP 7 minutes before the cells; FIGS. 2 and 3
Experimental: The blood of a C57BL/6 mouse was centrifuged at 160×g for 15 minutes to give platelet rich plasma (PRP). As a control, platelet poor plasma (PPP) obtained by centrifuging the blood at 1,000×g for 10 minutes was employed. […] After preincubation for 5 to 7 minutes, the mixture was added to a suspension of B16-BL6 cells in physiological saline (approximately 10^6 /ml) and stirred at 37° C. at 1,000 rpm. During this period, the aggregation of the platelets was monitored with a dual aggregometer (Model 440; Chrono-Log, USA). […] FIGS. 1 to 3 together show the results.

[8] = test system: adhesion of B16-BL6 melanoma cells to fibronectin; test: Inhibition of B16-BL6 cell adhesion to fibronectin-coated substrate by peptides present during culture; type: cell-based, mouse
B16-BL6 melanoma cells [9] = test: Distribution and retention of [125I]IUdR-labeled B16-BL6 melanoma cells in organs
Experimental: B16-BL6 cells at the logarithmic growth phase were labeled with [^125 I]IUdR. […] The liver, kidneys, spleen and lungs of each animal were removed 30 minutes or 24 hours after the administration and the radioactivity in these organs was determined. Mice which received PBS were used as control animals.

[10] = incubated with 100 μg/ml peptide
[11] = incubated with 500 μg/ml peptide
[12] = Test 1, simultaneous (mixed with 5×10^4 cells, i.v.), 500 μg, colonies counted after 14 days
[13] = 100 μg/animal, administration date 7
[14] = 100 μg/animal, administration date 14
[15] = 100 μg/animal, administration date 20
[16] = 50 × 4 μg/animal, administration dates 7, 10, 13, 16
[17] = 500 μg/mouse with labeled cells i.v.

## Poly(Tyr-Ile-Gly-Ser-Arg)HCl (YIGSR; not fully specified; printed as Poly(Tyr-Ile-Gly-Ser-Arg)HCl; also: HCl salt)
B16-BL6 melanoma cells [1]; 5 μg/animal
  No. of instances of metastasis to lung mean ± SD: 81 ± 9
B16-BL6 melanoma cells [1]; 20 μg/animal
  No. of instances of metastasis to lung mean ± SD: 43 ± 13
B16-BL6 melanoma cells [1]; 100 μg/animal
  No. of instances of metastasis to lung mean ± SD: 19 ± 9
[2]; 100 μg/animal
  No. of instances of metastasis to lung mean ± SD: 14 ± 11
[2]; mouse, in vivo
  Antimetastatic activity relative to the original pentapeptide: ~10 times
[2]; polypeptide 2, 20 and 100 μg, pentapeptide 100 μg, mixed with cancer cells
  Antimetastatic effect on metastasis to the lungs (in words): remarkably inhibited
[3]
  Cytotoxicity on erythrocytes, spleen and thymus cells: neither any cytotoxicity

## Poly(L-arginylglycyl-L-aspartate hydrochloride) [Poly(Arg-Gly-Asp)]
[4]
  Adsorption of B16-BL6 melanoma cells to coated wells (in words): accelerated the adsorption
  Adhesiveness adhered cell No./substrate (SD): 7967 ± 910 adhered cell No./substrate
[5]; [10]
  Adhesiveness adhered cell No./substrate (SD): 3687 ± 229 adhered cell No./substrate
[5]; [11]
  Adhesiveness adhered cell No./substrate (SD): 3715 ± 231 adhered cell No./substrate
  Percentage in parentheses (inhibition of adhesion to fibronectin): 36%
B16-BL6 melanoma cells [1]; Test 1
  Antimetastatic effect on metastasis to lungs (in words): remarkably inhibited
B16-BL6 melanoma cells [1]; [12]
  Metastasis to lung mean ± SD: 23 ± 3
B16-BL6 melanoma cells [1]; Test 2
  Antimetastatic effect compared with the control group (in words): remarkable antimetastatic effect
B16-BL6 melanoma cells [1]; Test 2, separate (i.v. 5 minutes after the cells), 1000 μg
  Metastasis to lung mean ± SD: 16 ± 4
B16-BL6 melanoma cells [1]; Test 2, simultaneous, 1000 μg
  Metastasis to lung mean ± SD: 6 ± 4
B16-BL6 melanoma cells [1]; not mixed, i.v. to mice given B16-BL6 cells 5 minutes before
  Antimetastatic effect (in words): high antimetastatic effect
[2]; 500 μg/animal
  No. of instances of metastasis to lung mean ± SD: 34 ± 7
B16-BL6 melanoma cells [6]
  Metastasis of the cancer to the lungs (in words): remarkably reduced
B16-BL6 melanoma cells [6]; 100 μg/animal, administration date 1
  Number of metastatic cancer to lung (mm ± SD): 24 ± 17 mm
B16-BL6 melanoma cells [6]; 100 μg/animal, administration date 1, topical
  Size of transplanted cancer (mm ± SD), observation on 21st day: 8 ± 4 mm
B16-BL6 melanoma cells [6]; [13]
  Number of metastatic cancer to lung (mm ± SD): 29 ± 22 mm
  Size of transplanted cancer (mm ± SD), observation on 21st day: 9 ± 3 mm
B16-BL6 melanoma cells [6]; [14]
  Number of metastatic cancer to lung (mm ± SD): 120 ± 29 mm
  Size of transplanted cancer (mm ± SD), observation on 21st day: 10 ± 4 mm
B16-BL6 melanoma cells [6]; [15]
  Number of metastatic cancer to lung (mm ± SD): 131 ± 79 mm
  Size of transplanted cancer (mm ± SD), observation on 21st day: 8 ± 3 mm
B16-BL6 melanoma cells [6]; [16]
  Number of metastatic cancer to lung (mm ± SD): 26 ± 29 mm
  Size of transplanted cancer (mm ± SD), observation on 21st day: 8 ± 3 mm
B16-BL6 melanoma cells [6]; same regimens
  Growth of the transplanted cancer per se (in words): could not be suppressed
[7]
  Suppression of platelet aggregation induced by B16-BL6 cells (in words): completely suppressed
[8]; 100 or 500 μg/ml peptide (His-Gly-Gly 500 μg/ml)
  Inhibition of adhesion of fibronectin to cells (in words): inhibited
[8]; fibronectin coating, incubated with 100 μg/ml peptide
  Percentage in parentheses (inhibition of adhesion to fibronectin): 37%
B16-BL6 melanoma cells [9]; 500 μg/mouse
  Radioactivity in other organs including blood versus control (in words): no significant difference
  Radioactivity of the lungs versus control group (in words): markedly lower
B16-BL6 melanoma cells [9]; 500 μg/mouse with 2×10^4 labeled cells i.v., average of 3 animals
  Radioactivity (cpm ± SD), Lung: 1121 ± 281 cpm
B16-BL6 melanoma cells [9]; [17]
  Radioactivity (cpm ± SD), Blood (1 ml): 304 ± 94 cpm
  Radioactivity (cpm ± SD), Kidney: 73 ± 19 cpm
  Radioactivity (cpm ± SD), Liver: 195 ± 42 cpm
  Radioactivity (cpm ± SD), Spleen: 59 ± 7 cpm
B16-BL6 melanoma cells [9]; administered 15308 ± 1605 cpm/2 × 10^4 cells
  Percentage relative to the administered radioactivity, Lung: 7.3%
B16-BL6 melanoma cells [9]; mouse, in vivo
  Percentage relative to the administered radioactivity, Blood (1 ml): 2.0%
  Percentage relative to the administered radioactivity, Kidney: 0.5%
  Percentage relative to the administered radioactivity, Liver: 1.3%
  Percentage relative to the administered radioactivity, Spleen: 0.4%

## Copoly(L-arginine hydrochloride, glycine, L-aspartic acid) [Poly(Arg, Gly, Asp), reference compound]
[4]
  Adsorption of B16-BL6 melanoma cells to coated wells (in words): scarcely any adsorption
  Adhesiveness adhered cell No./substrate (SD): 1750 ± 395 adhered cell No./substrate
B16-BL6 melanoma cells [1]; Test 1
  Antimetastatic effect on metastasis to lungs (in words): no such antimetastatic effect
B16-BL6 melanoma cells [1]; [12]
  Metastasis to lung mean ± SD: 65 ± 4
B16-BL6 melanoma cells [6]
  Metastasis of the cancer to the lungs (in words): did not suppress
B16-BL6 melanoma cells [6]; [13]
  Number of metastatic cancer to lung (mm ± SD): 158 ± 62 mm
  Size of transplanted cancer (mm ± SD), observation on 21st day: 11 ± 3 mm
[7]
  Suppression of platelet aggregation induced by B16-BL6 cells (in words): scarcely any suppression capability

## O=C(O)CN(CCN(CC(=O)O)CC(=O)O)CC(=O)O [EDTA, reference compound]
[8]; 5 mM
  Inhibition of cell-adhesiveness of fibronectin (in words): inhibited

## Fibronectin: mouse fibronectin (obtained from Seikagaku Kogyo, Japan) used as a positive control
[4]
  Adsorption of B16-BL6 melanoma cells to coated wells (in words): accelerated the adsorption
  Adhesiveness adhered cell No./substrate (SD): 5849 ± 513 adhered cell No./substrate

## Poly(L-arginyl-glycyl-L-aspartic acid)hydrochloride [Poly(Arg-Gly-Asp)-1500]
B16-BL6 melanoma cells [1]; Test 2
  Antimetastatic effect compared with the control group (in words): remarkable antimetastatic effect
B16-BL6 melanoma cells [1]; Test 2, simultaneous, 1000 μg
  Metastasis to lung mean ± SD: 14 ± 4

## Cl.N=C(N)NCCC[C@H](N)C(=O)NCC(=O)N[C@@H](CC(=O)O)C(=O)O [Arg-Gly-Asp, L-arginylglycylaspartate hydrochloride, reference compound]
[5]; 100 or 500 μg/ml peptide (His-Gly-Gly 500 μg/ml), hydrochloride
  Inhibition of adhesion of fibronectin to cells (in words): dose-dependently inhibited
[5]; [10]
  Adhesiveness adhered cell No./substrate (SD): 5320 ± 52 adhered cell No./substrate
[5]; [11]
  Adhesiveness adhered cell No./substrate (SD): 3708 ± 265 adhered cell No./substrate
  Percentage in parentheses (inhibition of adhesion to fibronectin): 37%
B16-BL6 melanoma cells [1]; Test 1
  Amount needed relative to that of the polypeptide compound of the invention: approximately 6 times
  Antimetastatic effect on metastasis to lungs (in words): no such antimetastatic effect
B16-BL6 melanoma cells [1]; [12]
  Metastasis to lung mean ± SD: 46 ± 14
B16-BL6 melanoma cells [1]; Test 1, simultaneous, 3000 μg, 14 days
  Metastasis to lung mean ± SD: 18 ± 24
B16-BL6 melanoma cells [1]; Test 1, versus 500 μg Poly(Arg-Gly-Asp)
  Amount needed to achieve an antimetastatic effect comparable to that of Poly(Arg-Gly-Asp): 3,000 μg
